Source: the supplement of paper PMC4858399

Key:
Conditions in all cases: exposure time 48 h
[1] = test system: Caenorhabditis elegans N2; experiment: lowest effective concentration for larval growth inhibition (size below effect threshold); higher = less potent
In short: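 Worm size was taken as per-worm extinction on the Biosort, log-transformed and turned into well means. The larvae (C. elegans N2, L1 stage, 50 per 96-well) had spent 48 h at 20°C in K-medium with killed bacteria, 1% DMSO and 0.5, 1, 5, 10, 50, 100 or 200 µM chemical. The lowest effective concentration marks the first dose where the plate-adjusted mean size drops under a cutoff and remains under it at every higher dose; the cutoff is 5.665.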

[2] = test system: Caenorhabditis elegans N2; experiment: mean nematode size ln(EXT) after 48 h, plate-adjusted (DMSO control set to 6) (ln(EXT), control-adjusted); higher = larger nematodes / less growth inhibition
In short: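 C. elegans N2 larvae, synchronised at L1, grew for 48 h at 20°C in K-medium with killed OP50, 1% DMSO and 0.5–200 µM chemical. Mean size per well was derived from natural-logged Biosort extinction after a growth model removed debris. Adjustment across plates involved subtracting the vehicle control mean and adding 6.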

[3] = test system: Caenorhabditis elegans N2; experiment: AC50 for larval growth inhibition (Hill fit); higher = less potent
In short: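 Worms were synchronised C. elegans N2 L1 larvae, 50 per well of a 96-well plate, kept 48 h at 20°C in K-medium with killed OP50, 1% DMSO and 0.5–200 µM chemical. Size was taken as COPAS Biosort extinction, log-transformed and averaged per well, using only wells with at least 10 worms. AC50 was estimated by a constrained Hill fit with weighted genetic-algorithm regression; values outside the range are censored.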

| SMILES | lowest effective concentration [1] | mean nematode size ln(EXT) (ln) ([2]; 0.5 µM) | mean nematode size ln(EXT) (ln) ([2]; 1 µM) | mean nematode size ln(EXT) (ln) ([2]; 5 µM) | mean nematode size ln(EXT) (ln) ([2]; 10 µM) | mean nematode size ln(EXT) (ln) ([2]; 50 µM) | mean nematode size ln(EXT) (ln) ([2]; 100 µM) | mean nematode size ln(EXT) (ln) ([2]; 200 µM) | AC50 for larval growth inhibition [3] |
| --- | --- | --- | --- | --- | --- | --- | --- | --- | --- |
| CS/C(C)=N\OC(=O)N(C)SN(C)C(=O)O/N=C(\C)SC [Thiodicarb] | 5 µM | 5.54 | 5.83 | 5.32 | 5.34 | 4.27 | 3.74 | 3.51 | 28.4 µM |
| CCNC(=O)NC(=O)/C(C#N)=N/OC [Cymoxanil] | 100 µM | 6.18 | 6.05 | 6.07 | 6.11 | 5.79 | 5.58 | 4.81 | > 200 µM |
| CC(C)N(Cc1ccccc1)C(=O)C(C)(C)C [Butam] | 200 µM | 5.94 | 5.88 | 5.91 | 5.86 | 5.88 | 5.86 | 5.61 | > 200 µM |
| Nn1cnnc1 [4-Amino-4H-1,2,4-triazole] | 200 µM | 5.81 | 5.85 | 5.83 | 5.8 | 5.57 | 5.78 | 5.36 | > 200 µM |
| Cc1cc2c(cc1C(F)(F)F)N(C(=O)Nc1ccc(Oc3cccnc3C)nc1)CC2 | 200 µM | 5.88 | 5.73 | 5.86 | 5.71 | 5.75 | 5.67 | 5.57 | > 200 µM |
| Oc1c(Cl)c(Cl)c(Cl)c(Cl)c1Cl [Pentachlorophenol] | 50 µM | 5.82 | 5.94 | 5.92 | 5.89 | 5.6 | 5.01 | 4.2 | 146 µM |
| CCCCC(CC)COC(=O)c1ccc(C(=O)OCC(CC)CCCC)c(C(=O)OCC(CC)CCCC)c1 (centres undefined) [Tris(2-ethylhexyl)trimellitate] | 200 µM | 5.91 | 5.93 | 5.94 | 5.81 | 5.93 | 5.87 | 5.53 | > 200 µM |
| CC(C)=CCCC(C)CCO (centres undefined) [Citronellol] | 200 µM | 5.82 | 5.87 | 5.92 | 5.78 | 5.86 | 5.73 | 5.6 | > 200 µM |
| CNC(=S)S [Metam-sodium hydrate] | 200 µM | 6.25 | 6.2 | 6.21 | 6.3 | 6.43 | 6.13 | 5.52 | 191 µM |
| COc1cc(C(C)C)c2c(c1)S(=O)(=O)N(COc1cc(=O)n3cccc(OCCN4CCCCC4)c3n1)C2=O | 200 µM | 5.91 | 5.92 | 5.88 | 5.88 | 5.87 | 5.72 | 5.47 | > 200 µM |
| c1ccc2c(c1)ccc1ccccc12 [Phenanthrene] | 10 µM | 5.95 | 5.89 | 5.84 | 3.51 | 3.73 | 4.1 | 3.29 | 5.56 µM |
